Assay results published in US6812250B2, “Carboxamide-substituted phenylurea derivatives, process for their preparation and their use as medicaments” (Aventis Pharma Deutschland GmbH, priority 2001, dated 2004).

Biological target: T1, human glycogen phosphorylase a (Homo sapiens, UniProt P06737)
T1 sequence (P06737 1-847): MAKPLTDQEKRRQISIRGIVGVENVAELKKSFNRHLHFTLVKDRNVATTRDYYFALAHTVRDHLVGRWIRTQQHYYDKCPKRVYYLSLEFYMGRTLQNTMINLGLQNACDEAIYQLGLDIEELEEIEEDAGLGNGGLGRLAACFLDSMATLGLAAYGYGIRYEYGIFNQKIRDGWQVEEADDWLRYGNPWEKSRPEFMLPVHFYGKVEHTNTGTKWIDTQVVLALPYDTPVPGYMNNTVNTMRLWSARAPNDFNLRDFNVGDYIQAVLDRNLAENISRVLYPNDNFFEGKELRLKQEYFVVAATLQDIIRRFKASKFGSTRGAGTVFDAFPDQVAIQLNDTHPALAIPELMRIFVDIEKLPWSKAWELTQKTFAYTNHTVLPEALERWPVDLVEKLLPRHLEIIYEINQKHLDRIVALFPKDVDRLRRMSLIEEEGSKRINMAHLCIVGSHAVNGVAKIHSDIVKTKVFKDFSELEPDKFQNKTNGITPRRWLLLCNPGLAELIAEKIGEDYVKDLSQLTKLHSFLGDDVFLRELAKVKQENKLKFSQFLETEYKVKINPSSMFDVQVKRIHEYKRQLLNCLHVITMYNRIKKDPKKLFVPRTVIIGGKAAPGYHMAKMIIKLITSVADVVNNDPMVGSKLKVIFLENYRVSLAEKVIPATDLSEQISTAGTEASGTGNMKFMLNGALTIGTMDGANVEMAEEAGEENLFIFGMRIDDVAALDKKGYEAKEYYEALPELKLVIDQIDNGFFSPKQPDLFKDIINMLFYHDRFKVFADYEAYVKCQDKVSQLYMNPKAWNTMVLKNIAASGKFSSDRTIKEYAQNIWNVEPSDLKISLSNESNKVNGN
Assay: Glycogen phosphorylase a activity assay
Type: biochemical
Details: 10 μM test substance; GPa activity measured in the reverse direction (glycogen synthesis from glucose 1-phosphate, liberated inorganic phosphate, absorption at 820 nm); in vitro
Experimental: Glycogen Phosphorylase a Activity Assay
The effect of compounds on the activity of the active form of glycogen phosphorylase (GPa) was measured in the reverse direction by following the synthesis of glycogen from glucose 1-phosphate by determining the liberation of inorganic phosphate. All the reactions were carried out as duplicate determinations in microtiter plates with 96 wells (Half Area Plates, Costar No 3696), measuring the change in absorption owing to the formation of the reaction product at the wavelength specified hereinafter in a Multiskan Ascent Elisa Reader (Lab Systems, Finland). […] The baseline glycogen phosphorylase a activity in the absence of test substance was determined by adding 10 μl of buffer solution T (0.1% DMSO). The mixture was incubated at room temperature for 40 minutes, and the liberated inorganic phosphate was measured by the general method of Drueckes et al. (Drueckes P, Schinzel R, Palm D, Anal Biochem 1995 Sep. 1;230(1):173-177) with the following modifications: 50 μl of a stop solution of 7.3 mM ammonium molybdate, 10.9 mM zinc acetate, 3.6% ascorbic acid, 0.9% SDS are added to 50 μl of the enzyme mixture. After incubation at 45° C. for 60 minutes, the absorption at 820 nm was measured. […]

inhibition at 10 µM: 87%
SMILES: CCOC(=O)N1CCC(NC(=O)c2ccc(Cl)c(NC(=O)NC(=O)c3ccccc3Cl)c2)CC1 [Example 1, Ethyl 4-{4-chloro-3-[3-(2-chlorobenzoyl)ureido]benzoylamino}piperidine-1-carboxylate]
